Columns and labels:
[1] = test system: SETARI; assay: Pre-emergence herbicidal action; format: in vivo, Setaria; parameters: key: 1=total damage; 9=no action; conditions: 250 g of active ingredient per ha, sprayed immediately after sowing, evaluated after 3 weeks; scale of nine ratings, 1 to 4 good to very good action
Procedure: (§1) Monocotyledonous and dicotyledonous test plants are sown in standard soil in plastic pots. Immediately after sowing, the test compounds, in the form of an aqueous suspension (prepared from a 25% wettable powder (Example F3, b) according to WO 97/34485) or in the form of an emulsion (prepared from a 25% emulsifiable concentrate (Example F1, c)), are applied by spraying, in an amount corresponding to 250 g of active ingredient per ha (500 litres of water per ha). The test plants are then grown in a greenhouse under optimum conditions. After a test duration of 3 weeks, the test is evaluated in accordance with a scale of nine ratings (1=total damage, 9=no action). Ratings of from 1 to 4 (especially from 1 to 3) indicate good to very good herbicidal action.

[2] = test system: PANICU; assay: Pre-emergence herbicidal action; format: in vivo; parameters: key: 1=total damage; 9=no action; conditions: 250 g of active ingredient per ha, sprayed immediately after sowing, evaluated after 3 weeks; scale of nine ratings, 1 to 4 good to very good action
Procedure: as §1

[3] = test system: DIGITA; assay: Pre-emergence herbicidal action; format: in vivo, Digitaria; parameters: key: 1=total damage; 9=no action; conditions: 250 g of active ingredient per ha, sprayed immediately after sowing, evaluated after 3 weeks; scale of nine ratings, 1 to 4 good to very good action
Procedure: as §1

[4] = test system: ECHINO; assay: Pre-emergence herbicidal action; format: in vivo, Echinochloa; parameters: key: 1=total damage; 9=no action; conditions: 250 g of active ingredient per ha, sprayed immediately after sowing, evaluated after 3 weeks; scale of nine ratings, 1 to 4 good to very good action
Procedure: as §1

[5] = test system: ABUTIL; assay: Pre-emergence herbicidal action; format: in vivo, Abutilon; parameters: key: 1=total damage; 9=no action; conditions: 250 g of active ingredient per ha, sprayed immediately after sowing, evaluated after 3 weeks; scale of nine ratings, 1 to 4 good to very good action
Procedure: as §1

[6] = test system: AMARAN; assay: Pre-emergence herbicidal action; format: in vivo, Amaranthus; parameters: key: 1=total damage; 9=no action; conditions: 250 g of active ingredient per ha, sprayed immediately after sowing, evaluated after 3 weeks; scale of nine ratings, 1 to 4 good to very good action
Procedure: as §1

[7] = test system: CHENOP; assay: Pre-emergence herbicidal action; format: in vivo, Chenopodium; parameters: key: 1=total damage; 9=no action; conditions: 250 g of active ingredient per ha, sprayed immediately after sowing, evaluated after 3 weeks; scale of nine ratings, 1 to 4 good to very good action
Procedure: as §1

[8] = test system: STELLA; assay: Pre-emergence herbicidal action; format: in vivo, Stellaria; parameters: key: 1=total damage; 9=no action; conditions: 250 g of active ingredient per ha, sprayed immediately after sowing, evaluated after 3 weeks; scale of nine ratings, 1 to 4 good to very good action
Procedure: as §1

[9] = test system: SETARI; assay: Post-emergence herbicidal action; format: in vivo, Setaria; conditions: 250 g of active ingredient per ha, sprayed at 4- to 6-leaf stage, evaluated after about 18 days; scale of nine ratings, 1 to 4 good to very good action
Procedure: (§2) Monocotyledonous and dicotyledonous test plants are grown in standard soil in plastic pots in a greenhouse and, at the 4- to 6-leaf stage, are sprayed with an aqueous suspension of the test compounds of formula I, prepared from a 25% wettable powder (Example F3, b) according to WO 97/34485 or with an emulsion of the test compounds of formula I, prepared from a 25% emulsifiable concentrate (Example F1, c) according to WO 97/34485, in an amount corresponding to 250 g of active ingredient per ha (500 litres of water per ha). The test plants are then grown on in the greenhouse under optimum conditions. After a test duration of about 18 days, the test is evaluated in accordance with a scale of nine ratings (1=total damage, 9=no action). Ratings of from 1 to 4 (especially from 1 to 3) indicate good to very good herbicidal action.

[10] = test system: PANICU; assay: Post-emergence herbicidal action; format: in vivo; parameters: key: 1=total damage; 9=no action; conditions: 250 g of active ingredient per ha, sprayed at 4- to 6-leaf stage, evaluated after about 18 days; scale of nine ratings, 1 to 4 good to very good action
Procedure: as §2

[11] = test system: DIGITA; assay: Post-emergence herbicidal action; format: in vivo, Digitaria; parameters: key: 1=total damage; 9=no action; conditions: 250 g of active ingredient per ha, sprayed at 4- to 6-leaf stage, evaluated after about 18 days; scale of nine ratings, 1 to 4 good to very good action
Procedure: as §2

[12] = test system: ECHINO; assay: Post-emergence herbicidal action; format: in vivo, Echinochloa; conditions: 250 g of active ingredient per ha, sprayed at 4- to 6-leaf stage, evaluated after about 18 days; scale of nine ratings, 1 to 4 good to very good action
Procedure: as §2

[13] = test system: EUPHOR; assay: Post-emergence herbicidal action; format: in vivo; conditions: 250 g of active ingredient per ha, sprayed at 4- to 6-leaf stage, evaluated after about 18 days; scale of nine ratings, 1 to 4 good to very good action
Procedure: as §2

[14] = test system: ABUTIL; assay: Post-emergence herbicidal action; format: in vivo, Abutilon; parameters: key: 1=total damage; 9=no action; conditions: 250 g of active ingredient per ha, sprayed at 4- to 6-leaf stage, evaluated after about 18 days; scale of nine ratings, 1 to 4 good to very good action
Procedure: as §2

[15] = test system: AMARAN; assay: Post-emergence herbicidal action; format: in vivo, Amaranthus; parameters: key: 1=total damage; 9=no action; conditions: 250 g of active ingredient per ha, sprayed at 4- to 6-leaf stage, evaluated after about 18 days; scale of nine ratings, 1 to 4 good to very good action
Procedure: as §2

[16] = test system: CHENOP; assay: Post-emergence herbicidal action; format: in vivo, Chenopodium; parameters: key: 1=total damage; 9=no action; conditions: 250 g of active ingredient per ha, sprayed at 4- to 6-leaf stage, evaluated after about 18 days; scale of nine ratings, 1 to 4 good to very good action
Procedure: as §2

Structure (SMILES) | Pre-emergence action SETARI, rating [1] | Pre-emergence action PANICU, rating [2] | Pre-emergence action DIGITA, rating [3] | Pre-emergence action ECHINO, rating [4] | Pre-emergence action ABUTIL, rating [5] | Pre-emergence action AMARAN, rating [6] | Pre-emergence action CHENOP, rating [7] | Pre-emergence action STELLA, rating [8] | Post-emergence action SETARI, rating [9] | Post-emergence action PANICU, rating [10] | Post-emergence action DIGITA, rating [11] | Post-emergence action ECHINO, rating [12] | Post-emergence action EUPHOR, rating [13] | Post-emergence action ABUTIL, rating [14] | Post-emergence action AMARAN, rating [15] | Post-emergence action CHENOP, rating [16]
COCCN(C1=C(C(=O)c2ccc(C(F)(F)F)nc2C)C(=O)C(C)(C)C(=O)C1(C)C)S(C)(=O)=O [Example 1.001] | 2 | 1 | 1 | 1 | 1 | 1 | 1 | 4 | 2 | 1 | 1 | 2 | 2 | 1 | 2 | 1
CCS(=O)(=O)N(CCOC)C1=C(C(=O)c2ccc(C(F)(F)F)nc2C)C(=O)C(C)(C)C(=O)C1(C)C [Example 1.007] | 1 | 1 | 1 | 1 | 1 | 1 | 1 | 1 | 2 | 1 | 1 | 2 | 2 | 1 | 2 | 1
COCCN(C1=C(C(=O)c2ccc(C(F)(F)F)nc2C)C(=O)C2CCC1C2)S(C)(=O)=O (stereo not shown) [Example 1.012] | 1 | 1 | 1 | 1 | 1 | 1 |  | 4 | 2 | 2 | 2 | 2 | 2 | 2 | 2 | 1
CCS(=O)(=O)N(CCOC)C1=C(C(=O)c2ccc(C(F)(F)F)nc2C)C(=O)C2CCC1C2 (stereo not shown) [Example 1.013, Ethanesulfonic acid(2-methoxy-ethyl)-[3-(2-methyl-6-trifluoromethyl-pyridine-3-carbonyl)-4-oxo-bicyclo[3.2.1]oct-2-en-2-yl]-amide] | 1 | 1 | 1 | 1 | 1 | 1 | 1 | 1 | 2 | 1 | 2 | 2 | 2 | 2 | 1 | 1
COCCN(C1=C(C(=O)c2ccc(C(F)(F)F)nc2C)C(=O)C2CCC1C2)S(=O)(=O)c1ccccc1 (stereo not shown) [Example 1.027] | 2 | 2 | 2 | 3 | 3 | 2 | 9 | 9 |  |  |  |  |  |  |  | 
CCS(=O)(=O)N(Cc1ccccc1)C1=C(C(=O)c2ccc(C(F)(F)F)nc2C)C(=O)C2CCC1C2 (stereo not shown) [Example 1.065] | 1 | 1 | 1 | 1 | 1 | 2 | 2 | 1 | 5 | 2 | 2 | 3 | 3 | 2 | 2 | 1
Cc1nc(C(F)(F)F)ccc1C(=O)C1=C(N(Cc2ccccc2)S(=O)(=O)C(C)C)C2CCC(C2)C1=O (stereo not shown) [Example 1.067] | 1 | 1 | 1 | 2 | 2 | 2 | 1 | 1 |  |  |  |  |  |  |  | 
Cc1nc(C(F)(F)F)ccc1C(=O)C1=C(N(Cc2ccccc2)S(=O)(=O)c2ccccc2)C2CCC(C2)C1=O (stereo not shown) [Example 1.079] | 6 | 1 | 3 | 2 | 4 | 3 | 2 | 2 |  |  |  |  |  |  |  | 
